Measurements: publication PMC10067956, “Pyrazole derivatives of pyridine and naphthyridine as proapoptotic agents in cervical and breast cancer cells” (Scientific Reports, 2023)

Tested on: HeLa cells
Assay: Alkaline comet assay
Assay type: cell-based
Details: 5j 6.4 µM 24 h
Experimental: Comet assay is a sensitive method to determine DNA damage which was performed after some modifications in a published protocol. […] The cervical cancer (HeLa) cells were treated with IC50 value of potent compound 5j for 24 h. Cells were harvested, collected and centrifuged to obtain a pellet. Pelleted cells were re-suspended in media. Untreated cells were used as control cells. For the positive control, 2 × 10^4 cells were treated with 20 µM of freshly prepared hydrogen peroxide for 30 min. Slides were prepared by coating with 1% normal melting point agarose (NMPA) on one side and then dried. Samples (2 × 10^4 cells/sample) were re-suspended in 1 mL of PBS. In a tube, 0.4 mL cell suspension was mixed with 1.2 mL of 0.9% low melting point agarose (LMPA) and mixed thoroughly by pipetting. A cell suspension of 65 µL was laid on coated slide and evenly distributed by placing a coverslip over it. Slides were placed at − 20 °C for 10 min. Then the slides were placed at 4 °C in the dark in a lysis buffer of 100 mM EDTA, 10 mM Trizma base, 2.5 M sodium chloride, 10% DMSO and 1% Triton X-100 in distilled water with a pH of 10. After an overnight incubation, slides were washed with chilled distilled water. These slides were then placed in electrophoresis chamber (Wealtec, USA) having chilled (4 °C) alkali unwinding solution (300 mM sodium hydroxide and 1 mM EDTA in distilled water). Electrophoresis was carried out at an adjusted voltage (between 0.7 and 1.0 V/cm) for 35 min in an electrophoresis tank. Slides were then immersed in neutralization solution (0.4 M Trizma base in 800 mL water, pH 7.5) for 10 min in dark. Propidium iodide (20 µL of 0.01 mg/mL) was used as fluorescent dye to stain DNA. Slides were placed in dark at room temperature. After 10 min, images were captured using a fluorescence microscope (Nikon ECLIPSE Ni–U, Japan) at an excitation/emission wavelength of 493/632 nm. Microscopic images were analyzed using ImageJ (ij152-win-java8, National Institutes of Health, Bethesda, USA) and OpenComet (OpenComet_imagej_v1.3.1, USA) where the DNA content in the head and tail of the comets were automatically measured by the software. Results of three independent experiments were expressed as tail length ([…]), %DNA in comet tail and comet tail moment.

Compound	%DNA in tail ± SD
OO [H2O2, Hydrogen Peroxide, reference compound]	55.11 ± 0.68%

Same assay, conditions: 5j 6.4 µM 24 h, H2O2 20 µM 30 min (positive control)

Compound	Tail length ± SD
OO [H2O2, Hydrogen Peroxide, reference compound]	84.14 ± 3.43 µM

Tested on: HeLa cells
Assay: MTT cell viability assay, HeLa
Assay type: cell-based
Details: 100 µM, 24 h
Experimental: (§1) The anti-proliferative activity of the studied compounds was determined against breast (MCF-7) and cervical (HeLa) cancer cells by the MTT cell viability assay as described earlier[44],[45]. BHK-21 cells were used as non-cancerous cells to study the effect of these compounds on normal cells. Briefly, 1 × 10^4 cells/well were seeded in 96-well microtiter plate and placed in an incubator (Heracell™ VIOS 160i, Thermo-Fisher Scientific) set for 5% CO2 at 37 °C. The stock solutions of compounds were prepared at 10 mM concentration in DMSO. Initial working solutions were prepared in cell culture medium at 1 mM concentration. […] After 24 h, medium in each well was aspirated and cells were treated for 4 h with serum free medium containing 0.2 mg/mL MTT reagent. The solubilizing reagent (10% acidified sodium dodecyl sulfate in propanol in a 1:1 ratio) was added to solubilize formazan crystals. Plates were kept at 37 °C for 30 min and then placed on a gyratory shaker for few min for complete solubilization of formazan crystals. The optical density was measured at 570 nm by microplate reader and IC50 values were calculated from three independent experiments as previously reported.

Compound	%Inhibition at 100 µM, HeLa cell line
N#CC1=C(N)Nc2n[nH]cc2C12C(=O)Nc1ccc(F)cc12 (centres unmarked) [4c]	57.80%
N#CC1=C(N)Nc2n[nH]cc2C12C(=O)Nc1ccc(Cl)cc12 (centres unmarked) [4d]	99.45%
N.N.[Cl][Pt][Cl] [Cisplatin, reference compound]	98.63%

Same assay, conditions: 24 h, read-out: IC50 (µM) ± SEM, HeLa Cell Line

Compound	IC50
N.N.[Cl][Pt][Cl] [Cisplatin, reference compound]	11.3 ± 0.78 µM

Same assay, conditions: Homo sapiens, 24 h, 100 µM, read-out: %Inhibition at 100 µM, HeLa cell line

Compound	inhibition at 100 µM
N#CC1=C(N)Nc2n[nH]cc2C12C(=O)Nc1ccccc12 (centres unmarked) [4a]	34.5%
Cc1ccc2c(c1)C1(C(=O)N2)C(C#N)=C(N)Nc2n[nH]cc21 (centres unmarked) [4b]	45.9%
N#CC1=C(N)Nc2n[nH]cc2C12C(=O)Nc1ccc(F)cc12 (centres unmarked) [4c]	> 50%
N#CC1=C(N)Nc2n[nH]cc2C12C(=O)Nc1ccc(Br)cc12 (centres unmarked) [4e]	24.9%
N#CC1=C(N)Nc2n[nH]cc2C12C(=O)Nc1ccc([N+](=O)[O-])cc12 (centres unmarked) [4f]	26.2%
N#CC1=C(N)Nc2n[nH]cc2C12C(=O)Nc1ccc(OC(F)(F)F)cc12 (centres unmarked) [4g]	38.6%
Cc1[nH]nc2c1C1(C(=O)Nc3ccccc31)C(C#N)=C(N)N2 (centres unmarked) [4h]	5.08%
Cc1ccc2c(c1)C1(C(=O)N2)C(C#N)=C(N)Nc2n[nH]c(C)c21 (centres unmarked) [4i]	39.7%
Cc1[nH]nc2c1C1(C(=O)Nc3ccc(F)cc31)C(C#N)=C(N)N2 (centres unmarked) [4j]	5.68%
Cc1[nH]nc2c1C1(C(=O)Nc3ccc(Cl)cc31)C(C#N)=C(N)N2 (centres unmarked) [4k]	3.84%
Cc1[nH]nc2c1C1(C(=O)Nc3ccc(Br)cc31)C(C#N)=C(N)N2 (centres unmarked) [4l]	39.3%
Cc1[nH]nc2c1C1(C(=O)Nc3ccc([N+](=O)[O-])cc31)C(C#N)=C(N)N2 (centres unmarked) [4m]	22.7%
Cc1[nH]nc2c1C1(C(=O)Nc3ccc(OC(F)(F)F)cc31)C(C#N)=C(N)N2 (centres unmarked) [4n]	27.8%
Nc1nc2ccccc2c2c1c(N)nc1n[nH]cc12 [5a]	97.9%
Cc1ccc2nc(N)c3c(N)nc4n[nH]cc4c3c2c1 [5b]	98.4%
Nc1nc2ccc(F)cc2c2c1c(N)nc1n[nH]cc12 [5c]	69.2%
Nc1nc2ccc(Cl)cc2c2c1c(N)nc1n[nH]cc12 [5d]	71.4%
Nc1nc2ccc(Br)cc2c2c1c(N)nc1n[nH]cc12 [5e]	98.3%
Nc1nc2ccc(OC(F)(F)F)cc2c2c1c(N)nc1n[nH]cc12 [5g]	61.3%
Cc1[nH]nc2nc(N)c3c(N)nc4ccccc4c3c12 [5h]	93.6%
Cc1ccc2nc(N)c3c(N)nc4n[nH]c(C)c4c3c2c1 [5i]	63.5%
Cc1[nH]nc2nc(N)c3c(N)nc4ccc(Br)cc4c3c12 [5l]	81.6%
Cc1[nH]nc2nc(N)c3c(N)nc4ccc([N+](=O)[O-])cc4c3c12 [5m]	44.9%
Cc1[nH]nc2nc(N)c3c(N)nc4ccc(OC(F)(F)F)cc4c3c12 [5n]	63.2%

Same assay, conditions: Homo sapiens, 24 h, read-out: IC50 (µM) ± SEM, HeLa Cell Line

Compound	IC50
N#CC1=C(N)Nc2n[nH]cc2C12C(=O)Nc1ccc(F)cc12 (centres unmarked) [4c]	90.2 ± 2.18 µM
N#CC1=C(N)Nc2n[nH]cc2C12C(=O)Nc1ccc(Cl)cc12 (centres unmarked) [4d]	51.6 ± 0.99 µM
Nc1nc2ccccc2c2c1c(N)nc1n[nH]cc12 [5a]	58.91 ± 0.39 µM
Cc1ccc2nc(N)c3c(N)nc4n[nH]cc4c3c2c1 [5b]	32.1 ± 1.14 µM
Nc1nc2ccc(F)cc2c2c1c(N)nc1n[nH]cc12 [5c]	10.3 ± 0.51 µM
Nc1nc2ccc(Cl)cc2c2c1c(N)nc1n[nH]cc12 [5d]	40.7 ± 1.42 µM
Nc1nc2ccc(Br)cc2c2c1c(N)nc1n[nH]cc12 [5e]	30.2 ± 1.15 µM
Nc1nc2ccc([N+](=O)[O-])cc2c2c1c(N)nc1n[nH]cc12 [5f]	69.1 ± 0.99 µM
Cc1[nH]nc2nc(N)c3c(N)nc4ccccc4c3c12 [5h]	14.4 ± 1.21 µM
Cc1ccc2nc(N)c3c(N)nc4n[nH]c(C)c4c3c2c1 [5i]	61.9 ± 1.76 µM
Cc1[nH]nc2nc(N)c3c(N)nc4ccc(Br)cc4c3c12 [5l]	38.5 ± 0.63 µM
Cc1[nH]nc2nc(N)c3c(N)nc4ccc(OC(F)(F)F)cc4c3c12 [5n]	32.7 ± 2.16 µM

Tested on: BHK-21 cells
Assay: MTT cell viability assay, non-cancerous BHK-21
Assay type: cell-based, Baby Hamster
Details: 24 h, read-out: IC50 (µM) ± SEM, BHK-21 cell line
Experimental: as §1

Compound	IC50
N.N.[Cl][Pt][Cl] [Cisplatin, reference compound]	24.7 ± 0.37 µM

Same assay, conditions: Mesocricetus auratus, 24 h, read-out: IC50 (µM) ± SEM, BHK-21 cell line

Compound	IC50
N#CC1=C(N)Nc2n[nH]cc2C12C(=O)Nc1ccc(F)cc12 (centres unmarked) [4c]	49.2 ± 2.01 µM
N#CC1=C(N)Nc2n[nH]cc2C12C(=O)Nc1ccc(Cl)cc12 (centres unmarked) [4d]	246 ± 6.71 µM
Nc1nc2ccccc2c2c1c(N)nc1n[nH]cc12 [5a]	177 ± 6.11 µM
Cc1ccc2nc(N)c3c(N)nc4n[nH]cc4c3c2c1 [5b]	126 ± 1.63 µM
Nc1nc2ccc(F)cc2c2c1c(N)nc1n[nH]cc12 [5c]	42.4 ± 1.95 µM
Nc1nc2ccc(Cl)cc2c2c1c(N)nc1n[nH]cc12 [5d]	166.8 ± 0.95 µM
Nc1nc2ccc(Br)cc2c2c1c(N)nc1n[nH]cc12 [5e]	84.1 ± 3.31 µM
Nc1nc2ccc([N+](=O)[O-])cc2c2c1c(N)nc1n[nH]cc12 [5f]	101 ± 2.61 µM
Cc1[nH]nc2nc(N)c3c(N)nc4ccccc4c3c12 [5h]	31.4 ± 1.33 µM
Cc1ccc2nc(N)c3c(N)nc4n[nH]c(C)c4c3c2c1 [5i]	134 ± 1.71 µM
Cc1[nH]nc2nc(N)c3c(N)nc4ccc(Br)cc4c3c12 [5l]	152 ± 2.61 µM
Cc1[nH]nc2nc(N)c3c(N)nc4ccc(OC(F)(F)F)cc4c3c12 [5n]	46.6 ± 1.03 µM

Tested on: MCF-7 cells
Assay: MTT cell viability assay, MCF-7
Assay type: cell-based
Details: 100 µM, 24 h
Experimental: as §1

Compound	%Inhibition at 100 µM, MCF-7 cell line
N.N.[Cl][Pt][Cl] [Cisplatin, reference compound]	73.12%

Same assay, conditions: 24 h, read-out: IC50 (µM) ± SEM, MCF-7 cell line

Compound	IC50
N.N.[Cl][Pt][Cl] [Cisplatin, reference compound]	6.22 ± 0.72 µM

Same assay, conditions: Homo sapiens, MCF7, 100 µM, 24 h, read-out: %Inhibition at 100 µM, MCF-7 cell line

Compound	inhibition at 100 µM
N#CC1=C(N)Nc2n[nH]cc2C12C(=O)Nc1ccccc12 (centres unmarked) [4a]	28.2%
Cc1ccc2c(c1)C1(C(=O)N2)C(C#N)=C(N)Nc2n[nH]cc21 (centres unmarked) [4b]	1.86%
N#CC1=C(N)Nc2n[nH]cc2C12C(=O)Nc1ccc(F)cc12 (centres unmarked) [4c]	26.8%
N#CC1=C(N)Nc2n[nH]cc2C12C(=O)Nc1ccc(Cl)cc12 (centres unmarked) [4d]	18.9%
N#CC1=C(N)Nc2n[nH]cc2C12C(=O)Nc1ccc(Br)cc12 (centres unmarked) [4e]	7.24%
N#CC1=C(N)Nc2n[nH]cc2C12C(=O)Nc1ccc([N+](=O)[O-])cc12 (centres unmarked) [4f]	5.23%
N#CC1=C(N)Nc2n[nH]cc2C12C(=O)Nc1ccc(OC(F)(F)F)cc12 (centres unmarked) [4g]	15.2%
Cc1[nH]nc2c1C1(C(=O)Nc3ccccc31)C(C#N)=C(N)N2 (centres unmarked) [4h]	2.38%
Cc1ccc2c(c1)C1(C(=O)N2)C(C#N)=C(N)Nc2n[nH]c(C)c21 (centres unmarked) [4i]	1.42%
Cc1[nH]nc2c1C1(C(=O)Nc3ccc(F)cc31)C(C#N)=C(N)N2 (centres unmarked) [4j]	2.22%
Cc1[nH]nc2c1C1(C(=O)Nc3ccc(Cl)cc31)C(C#N)=C(N)N2 (centres unmarked) [4k]	11.9%
Cc1[nH]nc2c1C1(C(=O)Nc3ccc(Br)cc31)C(C#N)=C(N)N2 (centres unmarked) [4l]	1.78%
Cc1[nH]nc2c1C1(C(=O)Nc3ccc([N+](=O)[O-])cc31)C(C#N)=C(N)N2 (centres unmarked) [4m]	23.3%
Cc1[nH]nc2c1C1(C(=O)Nc3ccc(OC(F)(F)F)cc31)C(C#N)=C(N)N2 (centres unmarked) [4n]	0.15%
Nc1nc2ccccc2c2c1c(N)nc1n[nH]cc12 [5a]	46.4%
Cc1ccc2nc(N)c3c(N)nc4n[nH]cc4c3c2c1 [5b]	96.4%
Nc1nc2ccc(F)cc2c2c1c(N)nc1n[nH]cc12 [5c]	4.12%
Nc1nc2ccc(Cl)cc2c2c1c(N)nc1n[nH]cc12 [5d]	27.3%
Nc1nc2ccc(Br)cc2c2c1c(N)nc1n[nH]cc12 [5e]	96.8%
Nc1nc2ccc([N+](=O)[O-])cc2c2c1c(N)nc1n[nH]cc12 [5f]	9.54%
Nc1nc2ccc(OC(F)(F)F)cc2c2c1c(N)nc1n[nH]cc12 [5g]	31.4%
Cc1[nH]nc2nc(N)c3c(N)nc4ccccc4c3c12 [5h]	37.8%
Cc1ccc2nc(N)c3c(N)nc4n[nH]c(C)c4c3c2c1 [5i]	58.2%
Cc1[nH]nc2nc(N)c3c(N)nc4ccc(Br)cc4c3c12 [5l]	28.2%
Cc1[nH]nc2nc(N)c3c(N)nc4ccc([N+](=O)[O-])cc4c3c12 [5m]	10.3%
Cc1[nH]nc2nc(N)c3c(N)nc4ccc(OC(F)(F)F)cc4c3c12 [5n]	10.5%

Same assay, conditions: Homo sapiens, MCF7, 24 h, read-out: IC50 (µM) ± SEM, MCF-7 cell line

Compound	IC50
Cc1ccc2nc(N)c3c(N)nc4n[nH]cc4c3c2c1 [5b]	41.4 ± 0.47 µM
Nc1nc2ccc(Br)cc2c2c1c(N)nc1n[nH]cc12 [5e]	18.6 ± 0.29 µM
Cc1ccc2nc(N)c3c(N)nc4n[nH]c(C)c4c3c2c1 [5i]	54.7 ± 0.63 µM
